{"source": "patent US10285977B2", "about": "“Compositions and methods for treating alopecia” (David Weinstein Consulting, Inc., priority 2015, dated 2019)", "key": {"scalp": {"system": "scalp", "test": "Scalp closure following craniotomy in rats treated with RT175", "type": "in vivo", "settings": "RT175 treatment", "from_the_text": "Rats which had undergone brain surgery to test RT175 mediated regeneration of the brain following stroke. Following surgery, the scalp was closed."}, "skin lesions": {"system": "skin lesions", "test": "Skin lesions in pig treated topically with RT175", "type": "in vivo", "settings": "single pig, 120 ng topically daily", "experimental": "A single pig underwent bilateral, slit thickness, skin surgery leaving lesions on opposite sides of the pig. One of these lesions was then treated topically with 120 ng of RT175, daily. The other lesion was treated with vehicle only. […] See FIG. 3 and compare 3(b) to 3(a). The de novo hair growth is consistent with the regeneration of the upper hair follicles, most of which would have been removed as the […] sliced through the skin in creating the split thickness wounds."}, "FKBP52": {"target": "T1, FKBP52 (Homo sapiens, UniProt Q02790)", "T1 construct": "endogenous in cells", "T1 sequence (Q02790 1-459)": "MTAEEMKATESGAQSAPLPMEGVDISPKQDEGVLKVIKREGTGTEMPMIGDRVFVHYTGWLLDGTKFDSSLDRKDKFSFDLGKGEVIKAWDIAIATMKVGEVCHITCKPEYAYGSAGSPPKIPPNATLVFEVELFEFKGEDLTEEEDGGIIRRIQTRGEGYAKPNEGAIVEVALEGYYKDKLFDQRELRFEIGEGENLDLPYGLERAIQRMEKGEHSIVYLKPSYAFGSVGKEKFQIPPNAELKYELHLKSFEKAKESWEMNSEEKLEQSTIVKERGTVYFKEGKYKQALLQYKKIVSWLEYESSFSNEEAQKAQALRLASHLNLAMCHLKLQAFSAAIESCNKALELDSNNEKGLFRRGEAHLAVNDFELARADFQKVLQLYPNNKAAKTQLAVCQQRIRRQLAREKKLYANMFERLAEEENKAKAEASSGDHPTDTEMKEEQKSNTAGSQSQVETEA", "settings": "fibroblasts treated for 2 hours; cited from earlier work"}, "androgenic alopecia": {"system": "androgenic alopecia", "test": "person with androgenic alopecia treated topically with RT175 and RT175/minoxidil", "type": "in vivo, human", "settings": "4 months; 120 ng/mL RT175, 1 mL twice daily on crown", "experimental": "The subject went on treatment holiday for 1 month, before beginning treatment with 120 ng/mL of RT175 and 5% w/v minoxidil in 30% w/v ethanol, 50% w/v propylene glycol and 20% w/v water. FIG. 4(c) depicts the subjects scalp before initiation of the second round of treatment."}, "[1]": {"target": "T2, FK506 binding protein 4 (“FKBP52”) (Homo sapiens, UniProt Q02790)", "T2 sequence (Q02790 1-459)": "T1 sequence (Q02790 1-459)", "settings": "cited from earlier work"}, "mouse dorsal skin": {"system": "mouse dorsal skin", "test": "Punch biopsies of mouse dorsal skin treated topically with RT175", "type": "in vivo, mice", "experimental": "Mice underwent 5 millimeter, full thickness, punch biopsies of their dorsal skin. Mice were then treated topically with 120 nanograms (“ng”) of RT175, daily."}, "hair growth": {"system": "hair growth", "settings": "shaved mice; cited from earlier work"}, "hair": {"system": "hair", "settings": "rats after craniotomy prior to neurosurgery; cited from earlier work"}, "[2]": {"system": "dermabrasion lesions of dorsal skin", "test": "Dermabrasion lesions of dorsal skin of mice treated with RT1061", "type": "in vivo, ICR mice", "settings": "5 μL of 100 nanomolar topically once daily, 10 days", "experimental": "Retired ICR breeder mice of both sexes with weight between 45 and 50 grams were shaved and rasped to induce dermabrasion lesions. The animals were then randomly assigned (5 per treatment arm) to one of two groups to receive either 5 μL of 100 nanomolar RT1061 or a vehicle control. RT1061 or vehicle control was applied topically to the lesion site once each day including immediately after dermabrasion."}, "androgenetic alopecia": {"system": "androgenetic alopecia", "settings": "at 6-months, cited from earlier work"}}, "data": [{"smiles": "CCC(C)(C)C(=O)C(=O)N1CCC[C@H]1C(=O)O", "note": "[RT175]", "values": [{"measurement": "scalp closure after brain surgery", "setting": "scalp", "value": "full scalp closure"}, {"measurement": "hair regeneration in the lesion", "setting": "skin lesions", "value": "regeneration of hair"}, {"measurement": "lesion healing versus vehicle-treated lesion", "setting": "skin lesions", "value": "early and transient appearance of granulation tissue, followed by rapid revascularization, invasion of newly formed skin from wound edges, accelerated repigmentation"}, {"measurement": "FKBP52 localisation", "setting": "FKBP52", "value": "translocation of FKBP52 to the nucleus"}, {"measurement": "hair growth", "setting": "androgenic alopecia", "value": "absence of hair growth"}, {"measurement": "binding affinity", "setting": "[1]", "value": "high affinity"}, {"measurement": "healing of the wound site versus vehicle", "setting": "mouse dorsal skin; 5 days after punch biopsy, 120 ng RT175 topically daily", "value": "clearly accelerated"}, {"measurement": "treated wounds completely closed", "setting": "mouse dorsal skin; 9 days after punch biopsy, 120 ng topically daily", "value": 80, "unit": "%"}, {"measurement": "hair regeneration in the wound", "setting": "mouse dorsal skin; 9 days after punch biopsy, intact follicles even in the middle of the wound", "value": "robust hair regeneration"}, {"measurement": "time for the other 20% of treated wounds to close", "setting": "mouse dorsal skin; after day 9, 120 ng topically daily", "value": "≤ 18", "unit": "h"}, {"measurement": "hair growth", "setting": "hair growth", "value": "induce hair growth"}, {"measurement": "hair regrowth", "setting": "hair", "value": "re-grow hair"}]}, {"smiles": "CCC(C)(C)C(=O)C(=O)N1CCCC1Cc1ccccc1", "note": "(stereo not shown) [RT1061]", "values": [{"measurement": "hair growth", "setting": "[2]", "value": "rapid hair growth"}, {"measurement": "skin regeneration", "setting": "[2]", "value": "rapid regeneration of rasped skin"}]}, {"smiles": "Nc1cc(N2CCCCC2)nc(N)[n+]1[O-]", "note": "[minoxidil]", "values": [{"measurement": "treated individuals who maintained existing hair with no additional loss", "setting": "androgenetic alopecia", "value": 50, "unit": "%"}, {"measurement": "treated individuals with new hair growth", "setting": "androgenetic alopecia; minoxidil treatment", "value": 15, "unit": "%"}]}]}
